From patent US9695155B2, “Herbicidal substituted pyrimidinyloxy benzene compounds” (E. I. DU PONT DE NEMOURS AND COMPANY, priority 2013, dated 2017)

Experiments:
rice = assay: Test B flooded paddy test; format: in vivo, Oryza sativa; conditions: Flood, 250 g ai/ha; 0 to 100 scale where 0 is no effect and 100 is complete control
Outline: (§1)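 2-leaf stage plants; pots flooded to 3 cm, compound added to paddy water, depth maintained. Greenhouse 13–15 d. Visual rating vs untreated controls, 0 (no effect) to 100 (complete control); dash = no result.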

barnyardgrass [1] = assay: Test C postemergence; format: in vivo, Echinochloa crus-galli; conditions: for Plant response rating (0 to 100), Barnyardgrass: 16 g ai/ha, 0 is no effect, 100 is complete control; for Barnyardgrass plant response rating: 31 g ai/ha, 13 to 15 days; for Barnyardgrass plant response rating / Plant response rating, Barnyardgrass: scale 0 to 100 (0 no effect, 100 complete control)
Outline: (§2)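 Visual injury score versus untreated controls, 0 = no effect, 100 = complete control, taken 13 to 15 days after treatment in the greenhouse. Pre-emergence pots held loam/sand; post-emergence plants grew in sphagnum peat/vermiculite mix and were sprayed at the 1- to 4-leaf stage.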

ragweed = assay: Test C postemergence; format: in vivo, Ambrosia elatior; conditions: for Plant response rating (0 to 100), Ragweed: 16 g ai/ha, 0 is no effect, 100 is complete control; for Ragweed plant response rating: 31 g ai/ha; for Ragweed plant response rating / Plant response rating, Ragweed: scale 0 to 100 (0 no effect, 100 complete control)
Outline: as §2

blackgrass = assay: Test C postemergence; format: in vivo, Alopecurus myosuroides; conditions: for Plant response rating (0 to 100), Blackgrass: 16 g ai/ha, 0 is no effect, 100 is complete control; for Blackgrass plant response rating: 31 g ai/ha; for Blackgrass plant response rating / Plant response rating, Blackgrass: scale 0 to 100 (0 no effect, 100 complete control)
Outline: as §2

Italian ryegrass = assay: Test C postemergence; format: in vivo, Lolium multiflorum; conditions: for Plant response rating (0 to 100), Ryegrass, Italian: 16 g ai/ha, 0 is no effect, 100 is complete control; for Ryegrass, Italian plant response rating: 31 g ai/ha; for Ryegrass, Italian plant response rating / Plant response rating, Ryegrass, Italian: scale 0 to 100 (0 no effect, 100 complete control)
Outline: as §2

yellow nutsedge = assay: Test C postemergence; format: in vivo, Cyperus esculentus; conditions: for Plant response rating (0 to 100), Nutsedge, Yellow: 16 g ai/ha, 0 is no effect, 100 is complete control; for Nutsedge, Yellow plant response rating: 31 g ai/ha; for Nutsedge, Yellow plant response rating / Plant response rating, Nutsedge, Yellow: scale 0 to 100 (0 no effect, 100 complete control)
Outline: as §2

pigweed = assay: Test A postemergence; format: in vivo, Amaranthus retroflexus; conditions: 0 to 100 scale where 0 is no effect and 100 is complete control; for Pigweed plant response rating: 125 g ai/ha; for Plant response rating, Pigweed: 500 g ai/ha
Outline: (§3)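 Injury scores run from 0, no effect, to 100, complete control, judged by eye against untreated plants roughly 10 days after treatment. Chemicals carried a surfactant in a non-phytotoxic solvent and went onto loam–sand soil preemergence or onto one- to two-leaf seedlings postemergence.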

barnyardgrass [2] = assay: Test A preemergence; format: in vivo, Echinochloa crus-galli; conditions: for Barnyardgrass plant response rating: 500 g ai/ha
Outline: as §3

large (Lg) crabgrass [3] = assay: Test C postemergence; format: in vivo, Digitaria sanguinalis; conditions: for Plant response rating (0 to 100), Crabgrass, Large: 16 g ai/ha, 0 is no effect, 100 is complete control; for Crabgrass, Large plant response rating: 31 g ai/ha; for Crabgrass, Large plant response rating / Plant response rating, Crabgrass, Large: scale 0 to 100 (0 no effect, 100 complete control)
Outline: as §2

sedge, umbrella = assay: Test B flooded paddy test; format: in vivo, Cyperus difformis; conditions: Flood, 250 g ai/ha; 0 to 100 scale where 0 is no effect and 100 is complete control
Outline: as §1

lambsquarters = assay: Test C postemergence; format: in vivo, Chenopodium album; conditions: for Plant response rating (0 to 100), Lambsquarters: 16 g ai/ha, 0 is no effect, 100 is complete control; for Lambsquarters plant response rating: 31 g ai/ha; for Lambsquarters plant response rating / Plant response rating, Lambsquarters: scale 0 to 100 (0 no effect, 100 complete control)
Outline: as §2

galium = assay: Test C postemergence; format: in vivo, Galium aparine; conditions: for Plant response rating (0 to 100), Galium: 16 g ai/ha, 0 is no effect, 100 is complete control; for Galium plant response rating: 31 g ai/ha; for Galium plant response rating / Plant response rating, Galium: scale 0 to 100 (0 no effect, 100 complete control)
Outline: as §2

large (Lg) crabgrass [4] = assay: Test A postemergence; format: in vivo, Digitaria sanguinalis; conditions: 0 to 100 scale where 0 is no effect and 100 is complete control; for Crabgrass, Large plant response rating: 125 g ai/ha; for Plant response rating, Crabgrass, Large: 500 g ai/ha
Outline: as §3

wheat = assay: Test A preemergence; format: in vivo, Triticum aestivum; conditions: for Wheat plant response rating (0 to 100 scale): 125 g ai/ha
Outline: as §3

soybean = assay: Test C postemergence; format: in vivo, Glycine max; conditions: for Plant response rating (0 to 100), Soybean: 16 g ai/ha, 0 is no effect, 100 is complete control; for Soybean plant response rating: 31 g ai/ha; for Soybean plant response rating / Plant response rating, Soybean: scale 0 to 100 (0 no effect, 100 complete control)
Outline: as §2

[5] = 125 g ai/ha, postemergence, visual rating
[6] = postemergence, visual rating, 13 to 15 days
[7] = Postemergence, 62 g ai/ha, 13 to 15 days
[8] = 0 to 100 scale where 0 is no effect and 100 is complete control

## FC(F)c1cnn(-c2c(Cl)cccc2Oc2ncc(Cl)cn2)c1 [Compound 192]
rice
  Plant response rating, Rice: 0
Barnyardgrass [1]; postemergence
  Plant response rating (0 to 100), Barnyardgrass: 5
Barnyardgrass [1]; postemergence, visual rating
  Barnyardgrass plant response rating: 10
Barnyardgrass [1]; [5]
  Plant response rating, Barnyardgrass: 10
Barnyardgrass [1]; Postemergence, 62 g ai/ha
  Plant response rating, Barnyardgrass: 10
ragweed; postemergence
  Plant response rating (0 to 100), Ragweed: 10
ragweed; [6]
  Ragweed plant response rating: 25
ragweed; [5]
  Plant response rating, Ragweed: 45
ragweed; [7]
  Plant response rating, Ragweed: 15
blackgrass; postemergence
  Plant response rating (0 to 100), Blackgrass: 0
blackgrass; [6]
  Blackgrass plant response rating: 0
blackgrass; [5]
  Plant response rating, Blackgrass: 10
blackgrass; [7]
  Plant response rating, Blackgrass: 5
Italian ryegrass; postemergence
  Plant response rating (0 to 100), Ryegrass, Italian: 0
Italian ryegrass; [6]
  Ryegrass, Italian plant response rating: 0
Italian ryegrass; [5]
  Plant response rating, Ryegrass, Italian: 5
Italian ryegrass; [7]
  Plant response rating, Ryegrass, Italian: 5
Yellow nutsedge; postemergence
  Plant response rating (0 to 100), Nutsedge, Yellow: 5
Yellow nutsedge; [6]
  Nutsedge, Yellow plant response rating: 5
Yellow nutsedge; [5]
  Plant response rating, Nutsedge, Yellow: 40
Yellow nutsedge; [7]
  Plant response rating, Nutsedge, Yellow: 0
pigweed
  Pigweed plant response rating: 100
  Plant response rating, Pigweed: 100
Barnyardgrass [2]; 125 g ai/ha
  Barnyardgrass plant response rating (0 to 100 scale, 0 is no effect, 100 is complete control): 60
Barnyardgrass [2]; [8]
  Barnyardgrass plant response rating: 100
Large (Lg) crabgrass [3]; postemergence
  Plant response rating (0 to 100), Crabgrass, Large: 5
Large (Lg) crabgrass [3]; [6]
  Crabgrass, Large plant response rating: 10
Large (Lg) crabgrass [3]; [5]
  Plant response rating, Crabgrass, Large: 5
Large (Lg) crabgrass [3]; [7]
  Plant response rating, Crabgrass, Large: 5
sedge, umbrella
  Plant response rating, Sedge, Umbrella: 85
lambsquarters; postemergence
  Plant response rating (0 to 100), Lambsquarters: 10
lambsquarters; [6]
  Lambsquarters plant response rating: 25
lambsquarters; [5]
  Plant response rating, Lambsquarters: 90
lambsquarters; [7]
  Plant response rating, Lambsquarters: 90
galium; postemergence
  Plant response rating (0 to 100), Galium: 60
galium; [6]
  Galium plant response rating: 80
galium; [5]
  Plant response rating, Galium: 85
galium; [7]
  Plant response rating, Galium: 80
Large (Lg) crabgrass [4]
  Crabgrass, Large plant response rating: 50
  Plant response rating, Crabgrass, Large: 90
wheat
  Wheat plant response rating (0 to 100 scale): 0
soybean; postemergence
  Plant response rating (0 to 100), Soybean: 30
soybean; [6]
  Soybean plant response rating: 30
soybean; [5]
  Plant response rating, Soybean: 80
soybean; [7]
  Plant response rating, Soybean: 75

## Fc1cccc(Oc2ncc(Cl)cn2)c1-n1cc(Cl)cn1 [Compound 177]
rice
  Plant response rating, Rice: 15
Barnyardgrass [1]; postemergence
  Plant response rating (0 to 100), Barnyardgrass: 5
Barnyardgrass [1]; postemergence, visual rating
  Barnyardgrass plant response rating: 5
Barnyardgrass [1]; [5]
  Plant response rating, Barnyardgrass: 10
Barnyardgrass [1]; Postemergence, 62 g ai/ha
  Plant response rating, Barnyardgrass: 10
ragweed; postemergence
  Plant response rating (0 to 100), Ragweed: 10
ragweed; [6]
  Ragweed plant response rating: 15
ragweed; [5]
  Plant response rating, Ragweed: 60
ragweed; Postemergence, 62 g ai/ha
  Plant response rating, Ragweed: 55
blackgrass; postemergence
  Plant response rating (0 to 100), Blackgrass: 0
blackgrass; [6]
  Blackgrass plant response rating: 5
blackgrass; [5]
  Plant response rating, Blackgrass: 35
blackgrass; Postemergence, 62 g ai/ha
  Plant response rating, Blackgrass: 5
Italian ryegrass; postemergence
  Plant response rating (0 to 100), Ryegrass, Italian: 0
Italian ryegrass; [6]
  Ryegrass, Italian plant response rating: 0
Italian ryegrass; [5]
  Plant response rating, Ryegrass, Italian: 0
Italian ryegrass; Postemergence, 62 g ai/ha
  Plant response rating, Ryegrass, Italian: 0
Yellow nutsedge; postemergence
  Plant response rating (0 to 100), Nutsedge, Yellow: 0
Yellow nutsedge; [6]
  Nutsedge, Yellow plant response rating: 5
Yellow nutsedge; [5]
  Plant response rating, Nutsedge, Yellow: 10
Yellow nutsedge; Postemergence, 62 g ai/ha
  Plant response rating, Nutsedge, Yellow: 5
pigweed
  Pigweed plant response rating: 100
  Plant response rating, Pigweed: 100
Barnyardgrass [2]; 125 g ai/ha, 0 to 100 scale where 0 is no effect and 100 is complete control
  Plant response rating, Barnyardgrass: 70
Barnyardgrass [2]; [8]
  Barnyardgrass plant response rating: 100
Large (Lg) crabgrass [3]; postemergence
  Plant response rating (0 to 100), Crabgrass, Large: 5
Large (Lg) crabgrass [3]; [6]
  Crabgrass, Large plant response rating: 5
Large (Lg) crabgrass [3]; [5]
  Plant response rating, Crabgrass, Large: 10
Large (Lg) crabgrass [3]; Postemergence, 62 g ai/ha
  Plant response rating, Crabgrass, Large: 10
sedge, umbrella
  Plant response rating, Sedge, Umbrella: 100
lambsquarters; postemergence
  Plant response rating (0 to 100), Lambsquarters: 60
lambsquarters; [6]
  Lambsquarters plant response rating: 65
lambsquarters; [5]
  Plant response rating, Lambsquarters: 90
lambsquarters; Postemergence, 62 g ai/ha
  Plant response rating, Lambsquarters: 75
galium; postemergence
  Plant response rating (0 to 100), Galium: 60
galium; [6]
  Galium plant response rating: 50
galium; [5]
  Plant response rating, Galium: 98
galium; Postemergence, 62 g ai/ha
  Plant response rating, Galium: 85
Large (Lg) crabgrass [4]
  Crabgrass, Large plant response rating: 80
  Plant response rating, Crabgrass, Large: 100
wheat
  Wheat plant response rating (0 to 100 scale): 0
wheat; 500 g ai/ha, 0 to 100 scale where 0 is no effect and 100 is complete control
  Wheat plant response rating: 50
soybean; postemergence
  Plant response rating (0 to 100), Soybean: 45
soybean; [6]
  Soybean plant response rating: 65
soybean; [5]
  Plant response rating, Soybean: 95
soybean; Postemergence, 62 g ai/ha
  Plant response rating, Soybean: 85
